Laboratory results published in PMC5862616 (Oncotarget, 2018).
“Also recorded” adds a separate entry of the source.

Columns and labels:
[1] = test system: p-ERK (MAPK 42/44) in KM-12 cells; test: Western blot of phosphorylated MAPK 42/44 (ERK) in KM-12 cells; format: cell-based; conditions: KM-12 cells, 2 hours, western blot; b12: 100, 500, 1000 nM
Experimental: 20 μg NTRK1 fusion confirmation
T20 (ThermoScientific, Rockford, IL) for 30 minutes. MiniPrep cat# R2051 following manufacturer ’s protocol. […]
(1:2000) (Sigma-Aldrich), HRP-conjugated mouse or primers. The primer sequences are TPM3_Ex3B_F5:
Chalfont, UK). All western blots were developed using Ex12_R5: […]. PCR was […]

AXL = target: T1, AXL (Homo sapiens, UniProt P30530); test: scanMAX kinase panel
T1 sequence (P30530 26-894): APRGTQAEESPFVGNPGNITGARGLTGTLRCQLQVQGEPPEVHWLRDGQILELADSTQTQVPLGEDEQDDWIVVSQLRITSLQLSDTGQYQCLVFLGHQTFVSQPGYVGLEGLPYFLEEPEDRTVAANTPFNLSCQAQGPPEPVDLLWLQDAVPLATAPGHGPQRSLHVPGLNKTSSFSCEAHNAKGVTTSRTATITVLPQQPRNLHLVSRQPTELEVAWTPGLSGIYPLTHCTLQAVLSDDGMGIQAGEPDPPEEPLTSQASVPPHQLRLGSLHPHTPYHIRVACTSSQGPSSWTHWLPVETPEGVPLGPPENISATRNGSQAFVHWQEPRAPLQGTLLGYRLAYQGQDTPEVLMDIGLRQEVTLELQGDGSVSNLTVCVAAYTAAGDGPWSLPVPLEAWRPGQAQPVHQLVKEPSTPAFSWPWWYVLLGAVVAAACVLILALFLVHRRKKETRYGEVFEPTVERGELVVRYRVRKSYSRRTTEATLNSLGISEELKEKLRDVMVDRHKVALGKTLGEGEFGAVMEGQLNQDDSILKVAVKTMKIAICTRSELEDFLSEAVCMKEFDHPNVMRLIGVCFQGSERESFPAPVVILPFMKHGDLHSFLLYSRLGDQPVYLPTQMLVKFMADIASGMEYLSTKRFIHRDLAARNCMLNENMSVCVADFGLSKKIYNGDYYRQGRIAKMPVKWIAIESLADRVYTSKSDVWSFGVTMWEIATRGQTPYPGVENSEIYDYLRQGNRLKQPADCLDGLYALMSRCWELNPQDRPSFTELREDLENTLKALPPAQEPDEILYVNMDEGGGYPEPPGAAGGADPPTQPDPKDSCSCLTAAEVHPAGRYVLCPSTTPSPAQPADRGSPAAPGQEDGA

MKNK2 = MKNK2 (Homo sapiens, UniProt Q9HBH9); test: scanMAX kinase panel
MERTK = target: T2, MERTK (Homo sapiens, UniProt Q12866); test: scanMAX kinase panel
T2 sequence (Q12866 21-999): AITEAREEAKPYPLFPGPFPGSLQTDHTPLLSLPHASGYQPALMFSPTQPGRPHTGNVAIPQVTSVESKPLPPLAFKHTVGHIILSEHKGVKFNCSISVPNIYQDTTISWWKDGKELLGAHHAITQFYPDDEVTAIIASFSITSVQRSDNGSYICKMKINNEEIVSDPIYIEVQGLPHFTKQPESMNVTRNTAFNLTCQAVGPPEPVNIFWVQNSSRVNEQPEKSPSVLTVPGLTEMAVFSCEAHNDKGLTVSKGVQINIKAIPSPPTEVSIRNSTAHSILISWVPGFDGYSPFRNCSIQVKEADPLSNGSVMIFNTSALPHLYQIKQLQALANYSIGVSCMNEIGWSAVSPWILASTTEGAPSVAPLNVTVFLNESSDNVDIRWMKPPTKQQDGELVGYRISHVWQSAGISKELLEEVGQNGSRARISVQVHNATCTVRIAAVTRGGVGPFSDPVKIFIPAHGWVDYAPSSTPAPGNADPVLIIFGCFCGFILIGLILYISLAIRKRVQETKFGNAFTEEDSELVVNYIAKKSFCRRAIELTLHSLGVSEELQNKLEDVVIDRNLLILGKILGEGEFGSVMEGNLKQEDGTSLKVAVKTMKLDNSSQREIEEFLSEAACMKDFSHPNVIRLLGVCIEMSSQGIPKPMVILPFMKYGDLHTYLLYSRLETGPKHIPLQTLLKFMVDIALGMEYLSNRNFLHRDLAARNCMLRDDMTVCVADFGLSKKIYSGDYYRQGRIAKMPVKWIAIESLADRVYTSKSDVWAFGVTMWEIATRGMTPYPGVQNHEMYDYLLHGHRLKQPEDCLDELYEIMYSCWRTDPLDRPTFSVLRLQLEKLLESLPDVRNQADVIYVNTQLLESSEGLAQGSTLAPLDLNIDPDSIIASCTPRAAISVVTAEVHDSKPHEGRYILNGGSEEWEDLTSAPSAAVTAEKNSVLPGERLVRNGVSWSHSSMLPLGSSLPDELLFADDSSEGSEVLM

TEK (TIE2) = TEK (TIE2) (Homo sapiens, UniProt Q02763); test: scanMAX kinase panel
DDR1 = DDR1 (Homo sapiens, UniProt Q08345); test: scanMAX kinase panel
CSF1R = CSF1R (Homo sapiens, UniProt P07333); test: scanMAX kinase panel
VEGFR2 = VEGFR2 (Homo sapiens, UniProt P35968); test: scanMAX kinase panel
Chain of VEGFR2 (P35968 20-1356): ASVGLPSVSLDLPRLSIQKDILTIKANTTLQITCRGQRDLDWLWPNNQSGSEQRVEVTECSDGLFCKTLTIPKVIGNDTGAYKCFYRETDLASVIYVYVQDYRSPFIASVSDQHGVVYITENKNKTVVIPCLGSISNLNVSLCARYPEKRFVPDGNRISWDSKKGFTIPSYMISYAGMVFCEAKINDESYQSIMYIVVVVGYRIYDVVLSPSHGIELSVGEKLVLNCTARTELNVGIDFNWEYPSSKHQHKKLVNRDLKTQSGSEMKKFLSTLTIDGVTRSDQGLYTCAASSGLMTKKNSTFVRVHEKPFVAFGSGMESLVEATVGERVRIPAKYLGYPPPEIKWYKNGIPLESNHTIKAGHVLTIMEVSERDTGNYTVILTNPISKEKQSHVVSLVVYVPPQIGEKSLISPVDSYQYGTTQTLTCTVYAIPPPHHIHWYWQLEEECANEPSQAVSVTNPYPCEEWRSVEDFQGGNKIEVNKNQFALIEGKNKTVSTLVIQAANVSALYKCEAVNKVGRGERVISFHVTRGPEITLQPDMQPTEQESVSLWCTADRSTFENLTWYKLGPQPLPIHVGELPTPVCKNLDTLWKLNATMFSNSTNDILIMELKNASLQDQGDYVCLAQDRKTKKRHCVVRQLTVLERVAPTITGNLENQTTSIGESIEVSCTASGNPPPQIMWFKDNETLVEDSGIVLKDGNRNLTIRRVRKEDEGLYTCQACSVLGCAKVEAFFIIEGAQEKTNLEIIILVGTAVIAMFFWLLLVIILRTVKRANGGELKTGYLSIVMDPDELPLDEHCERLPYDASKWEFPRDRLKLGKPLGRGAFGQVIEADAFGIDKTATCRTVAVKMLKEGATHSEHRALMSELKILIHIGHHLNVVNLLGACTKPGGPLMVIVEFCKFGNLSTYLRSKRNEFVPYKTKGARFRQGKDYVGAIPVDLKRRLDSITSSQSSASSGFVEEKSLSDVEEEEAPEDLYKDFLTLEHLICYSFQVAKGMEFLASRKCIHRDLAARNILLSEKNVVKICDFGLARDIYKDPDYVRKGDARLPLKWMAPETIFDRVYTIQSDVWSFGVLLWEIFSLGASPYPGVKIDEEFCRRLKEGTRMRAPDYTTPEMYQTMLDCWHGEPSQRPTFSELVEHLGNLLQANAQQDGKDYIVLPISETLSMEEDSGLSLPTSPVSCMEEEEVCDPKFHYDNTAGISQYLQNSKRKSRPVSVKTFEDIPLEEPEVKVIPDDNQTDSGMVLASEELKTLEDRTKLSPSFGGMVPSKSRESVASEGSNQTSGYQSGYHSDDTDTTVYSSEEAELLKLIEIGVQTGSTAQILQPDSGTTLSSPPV

Chain of CSF1R (P07333 20-972): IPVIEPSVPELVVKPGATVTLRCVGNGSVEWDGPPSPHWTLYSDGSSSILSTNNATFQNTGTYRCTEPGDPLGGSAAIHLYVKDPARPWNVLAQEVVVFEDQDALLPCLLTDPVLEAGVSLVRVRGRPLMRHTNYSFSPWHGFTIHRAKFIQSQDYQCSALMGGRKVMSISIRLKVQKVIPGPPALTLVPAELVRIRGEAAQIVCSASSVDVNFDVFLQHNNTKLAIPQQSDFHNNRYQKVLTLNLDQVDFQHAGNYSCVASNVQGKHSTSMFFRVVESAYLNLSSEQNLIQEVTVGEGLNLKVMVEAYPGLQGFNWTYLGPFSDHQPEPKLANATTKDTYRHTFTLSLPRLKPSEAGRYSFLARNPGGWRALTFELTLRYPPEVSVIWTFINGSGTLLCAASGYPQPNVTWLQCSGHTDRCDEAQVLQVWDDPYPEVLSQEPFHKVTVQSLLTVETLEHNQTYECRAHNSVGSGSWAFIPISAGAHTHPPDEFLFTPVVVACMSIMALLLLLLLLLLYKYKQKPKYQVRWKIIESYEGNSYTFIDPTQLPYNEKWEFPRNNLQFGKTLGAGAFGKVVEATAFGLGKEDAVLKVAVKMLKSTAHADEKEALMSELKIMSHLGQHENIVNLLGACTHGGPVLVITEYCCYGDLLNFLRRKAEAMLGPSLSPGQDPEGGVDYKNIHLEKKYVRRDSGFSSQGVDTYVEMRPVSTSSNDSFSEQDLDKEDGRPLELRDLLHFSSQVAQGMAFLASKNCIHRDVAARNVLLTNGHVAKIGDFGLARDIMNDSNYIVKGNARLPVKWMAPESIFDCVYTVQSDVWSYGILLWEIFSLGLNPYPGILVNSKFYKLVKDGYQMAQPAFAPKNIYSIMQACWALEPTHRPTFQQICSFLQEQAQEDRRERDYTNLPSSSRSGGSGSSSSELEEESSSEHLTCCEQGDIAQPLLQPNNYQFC
Chain of TEK (TIE2) (Q02763 23-1124): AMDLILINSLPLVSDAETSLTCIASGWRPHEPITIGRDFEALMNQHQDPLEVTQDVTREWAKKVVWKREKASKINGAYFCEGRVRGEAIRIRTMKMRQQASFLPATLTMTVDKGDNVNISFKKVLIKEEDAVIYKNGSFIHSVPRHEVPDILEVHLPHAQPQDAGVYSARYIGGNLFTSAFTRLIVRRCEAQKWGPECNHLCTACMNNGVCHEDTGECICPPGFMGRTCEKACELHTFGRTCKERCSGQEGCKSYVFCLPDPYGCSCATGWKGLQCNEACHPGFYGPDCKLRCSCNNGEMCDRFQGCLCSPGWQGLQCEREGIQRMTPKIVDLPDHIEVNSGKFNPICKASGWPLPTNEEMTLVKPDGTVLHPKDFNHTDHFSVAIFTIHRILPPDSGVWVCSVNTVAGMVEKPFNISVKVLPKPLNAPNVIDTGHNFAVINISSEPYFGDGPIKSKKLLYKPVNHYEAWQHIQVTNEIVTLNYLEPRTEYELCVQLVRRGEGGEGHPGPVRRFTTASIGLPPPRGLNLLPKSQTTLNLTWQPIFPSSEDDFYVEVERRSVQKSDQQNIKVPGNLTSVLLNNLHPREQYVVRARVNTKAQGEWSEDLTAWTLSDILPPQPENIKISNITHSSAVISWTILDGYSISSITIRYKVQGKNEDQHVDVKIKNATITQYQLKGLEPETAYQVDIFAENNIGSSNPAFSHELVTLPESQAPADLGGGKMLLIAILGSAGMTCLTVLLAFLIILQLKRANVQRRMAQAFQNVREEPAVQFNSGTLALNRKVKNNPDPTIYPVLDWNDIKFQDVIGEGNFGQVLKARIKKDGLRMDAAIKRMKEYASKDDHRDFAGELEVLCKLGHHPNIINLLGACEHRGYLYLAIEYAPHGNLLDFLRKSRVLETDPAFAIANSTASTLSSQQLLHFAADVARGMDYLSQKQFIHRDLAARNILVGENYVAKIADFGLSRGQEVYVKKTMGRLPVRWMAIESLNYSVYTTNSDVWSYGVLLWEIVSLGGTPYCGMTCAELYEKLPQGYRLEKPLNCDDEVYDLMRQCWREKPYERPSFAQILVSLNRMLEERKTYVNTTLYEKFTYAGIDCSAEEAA
Chain of DDR1 (Q08345 19-913): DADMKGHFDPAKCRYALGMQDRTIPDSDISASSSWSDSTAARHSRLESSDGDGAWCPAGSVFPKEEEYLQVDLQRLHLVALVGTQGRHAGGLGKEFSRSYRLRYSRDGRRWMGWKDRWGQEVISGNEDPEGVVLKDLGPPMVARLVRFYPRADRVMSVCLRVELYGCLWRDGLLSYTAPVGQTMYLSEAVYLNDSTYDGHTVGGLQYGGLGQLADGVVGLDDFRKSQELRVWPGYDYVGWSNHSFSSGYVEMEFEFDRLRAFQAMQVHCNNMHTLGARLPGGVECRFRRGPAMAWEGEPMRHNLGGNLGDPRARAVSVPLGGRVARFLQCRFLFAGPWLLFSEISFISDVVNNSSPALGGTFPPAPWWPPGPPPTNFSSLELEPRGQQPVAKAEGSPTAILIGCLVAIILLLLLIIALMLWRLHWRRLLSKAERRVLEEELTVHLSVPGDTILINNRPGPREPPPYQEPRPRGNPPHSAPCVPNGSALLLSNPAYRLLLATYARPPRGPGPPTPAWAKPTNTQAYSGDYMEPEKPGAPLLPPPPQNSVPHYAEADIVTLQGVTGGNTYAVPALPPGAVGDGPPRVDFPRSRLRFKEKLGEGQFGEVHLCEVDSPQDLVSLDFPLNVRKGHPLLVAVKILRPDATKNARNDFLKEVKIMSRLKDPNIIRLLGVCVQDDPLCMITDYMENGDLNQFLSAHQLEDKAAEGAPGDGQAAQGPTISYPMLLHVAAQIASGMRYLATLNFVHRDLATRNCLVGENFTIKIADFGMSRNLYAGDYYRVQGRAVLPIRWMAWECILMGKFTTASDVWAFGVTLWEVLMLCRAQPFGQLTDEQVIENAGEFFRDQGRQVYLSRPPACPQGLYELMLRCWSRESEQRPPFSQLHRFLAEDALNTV
Chain of MKNK2 (Q9HBH9 whole entry): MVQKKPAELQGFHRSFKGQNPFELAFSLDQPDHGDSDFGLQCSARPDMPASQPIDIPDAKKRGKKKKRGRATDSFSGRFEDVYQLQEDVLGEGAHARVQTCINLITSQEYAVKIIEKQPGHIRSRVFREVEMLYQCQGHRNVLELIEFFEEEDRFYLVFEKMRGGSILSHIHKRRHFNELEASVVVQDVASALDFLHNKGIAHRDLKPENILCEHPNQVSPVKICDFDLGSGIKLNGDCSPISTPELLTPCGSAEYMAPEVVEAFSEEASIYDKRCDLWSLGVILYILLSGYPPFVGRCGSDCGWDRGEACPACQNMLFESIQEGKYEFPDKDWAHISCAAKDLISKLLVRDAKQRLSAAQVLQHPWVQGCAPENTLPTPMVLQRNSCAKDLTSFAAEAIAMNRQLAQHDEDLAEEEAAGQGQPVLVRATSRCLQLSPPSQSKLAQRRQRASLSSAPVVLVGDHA

Compound	p-ERK inhibition (in words) [1]	% Inhibition at 0.2 μM, AXL (AXL) [%]	% Inhibition at 0.2 μM, MKNK2 (MKNK2) [%]	% Inhibition at 0.2 μM, MERTK (MERTK) [%]	% Inhibition at 0.2 μM, TEK (TIE2) (TEK (TIE2)) [%]	% Inhibition at 0.2 μM, DDR1 (DDR1) [%]	% Inhibition at 0.2 μM, CSF1R (CSF1R) [%]	% Inhibition at 0.2 μM, VEGFR2 (VEGFR2) [%]	inhibition at 0.2 µM (AXL; read-out: % Inhibition at 0.2 μM, AXL) [%]	inhibition at 0.2 µM (MKNK2; read-out: % Inhibition at 0.2 μM, MKNK2) [%]	inhibition at 0.2 µM (MERTK; read-out: % Inhibition at 0.2 μM, MERTK) [%]
Cc1ccc(C(=O)Nc2ccc(Oc3cc4cn[nH]c4cc3-c3cn[nH]c3)c(F)c2)c(=O)n1-c1ccc(F)cc1 [M1]	potent inhibition	99	98	99	100	100	98	72			
Cn1ncc2cc(Oc3ccc(NC(=O)c4ccc(CO)n(-c5ccc(F)cc5)c4=O)cc3F)c(-c3cn[nH]c3)cc21 [M2]	slightly less so	100	95	93	100	100	97	43			
Cc1ccc(C(=O)Nc2ccc(Oc3cc4cnn(C)c4cc3-c3cn[nH]c3)c(F)c2)c(=O)n1-c1ccc(F)cc1 [Merestinib]	dose dependent inhibition; also recorded: potent inhibition				99	100	97	63	100	98	96
